# Results: PubChem BioAssay (NCI)
#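 The compound was tested at five concentrations on cells cultured in 96-well plates, with a 48-hour exposure period. Here, GI50 denotes the concentration required for 50% inhibition of growth. At the TGI there is no net growth.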
# Key:
# Test in all cases: DTP human tumour cell line panel, 48 h
# [1] = tested on: SR leukemia
# [2] = tested on: ACHN renal
# [3] = tested on: SNB-75 CNS
# [4] = tested on: TK-10 renal
# [5] = tested on: HS 578T breast
# [6] = tested on: CAKI-1 renal
# [7] = tested on: COLO 205 colon
# [8] = tested on: BT-549 breast
# [9] = tested on: NCI-H23 lung
Compound,TGI [1],TGI [2],TGI [3],TGI [4],TGI [5],TGI [6],TGI [7],TGI [8],TGI [9],GI50 [1],GI50 [2],GI50 [3],GI50 [4],GI50 [5],GI50 [6],GI50 [7],GI50 [8],GI50 [9]
CC[C@]12CCCN3CCc4c(n(c5ccccc45)C(=O)C1)[C@@H]32,18 µM,> 100 µM,78.4 µM,> 90 µM,49.1 µM,> 100 µM,> 34 µM,> 100 µM,> 100 µM,,,,,,,,,
O=C[C@@H](CO)O[C@H](C=O)c1c[nH]c(=O)[nH]c1=O,614 µM,719 µM,1310 µM,355 µM,402 µM,250 µM,1210 µM,286 µM,539 µM,,,,,,,,,
COc1cc(C(=O)/C=C/c2c(C)n([O-])c3ccc(C)cc3[n+]2=O)cc(OC)c1OC,7.42 µM,5.6 µM,31.7 µM,> 34.6 µM,60.7 µM,,3.99 µM,33.2 µM,26.4 µM,2.15 µM,2.23 µM,14.5 µM,3.77 µM,14.7 µM,2.2 µM,2 µM,8.06 µM,10.4 µM
COc1cc(NS(C)(=O)=O)ccc1Nc1c2ccc([N+](=O)[O-])cc2nc2c(C)cccc12,5.82 µM,4.29 µM,7.48 µM,9.35 µM,22.3 µM,6.94 µM,13.5 µM,7.45 µM,9.26 µM,< 0.012 µM,0.371 µM,0.311 µM,2.07 µM,1.96 µM,1.13 µM,2.05 µM,1.45 µM,0.567 µM
CC12CCC3C(CCC4Cc5[nH]c6ccccc6c5CC43C)C1CCC2O (configuration not stated),1.32 µM,> 100 µM,> 100 µM,> 100 µM,1.88 µM,> 100 µM,6.78 µM,> 100 µM,> 24.8 µM,0.342 µM,0.967 µM,0.574 µM,2.73 µM,0.362 µM,0.791 µM,2.76 µM,2.65 µM,1.81 µM
CCCCC[C@H](O)/C=C/[C@@H]1[C@@H](C/C=C\CCCC(=O)O)[C@@H](O)C[C@H]1O,> 100 µM,> 100 µM,,> 100 µM,> 100 µM,> 100 µM,> 100 µM,> 100 µM,> 100 µM,> 100 µM,> 100 µM,,> 100 µM,> 100 µM,> 100 µM,> 100 µM,> 100 µM,> 100 µM
CCSCC1CC(O)(c2ccccc2)C(c2ccccc2)C(c2ccc(Cl)cc2)O1 (configuration not stated),5.99 µM,3.68 µM,4.72 µM,5.4 µM,8.87 µM,4.06 µM,2.94 µM,3.63 µM,3.94 µM,2.15 µM,1.81 µM,1.75 µM,2.27 µM,2.5 µM,1.49 µM,1.53 µM,1.76 µM,1.88 µM
O=C1c2ccccc2-c2c1c1ccccc1c(=O)n2CCCCNCCCn1c2c(c3ccccc3c1=O)C(=O)c1ccccc1-2,0.0273 µM,2.31 µM,28.3 µM,4.32 µM,16 µM,4.21 µM,12.7 µM,4.15 µM,2.53 µM,0.005 µM,0.0416 µM,6.45 µM,0.887 µM,0.822 µM,0.71 µM,1.51 µM,1.34 µM,0.461 µM
CCc1nc(N)nc(N)c1-c1ccc(NCCN)c([N+](=O)[O-])c1,> 55.8 µM,> 100 µM,> 89.7 µM,> 100 µM,> 100 µM,> 100 µM,40.4 µM,> 100 µM,> 100 µM,,,,,,,,,
O=C(Nc1ccc(Cl)c(Cl)c1)c1cccc(NC2=C(Cl)C(=O)N(Cc3ccccc3)C2=O)c1,68 µM,> 100 µM,> 100 µM,> 100 µM,> 100 µM,> 100 µM,> 100 µM,87.1 µM,> 100 µM,8.37 µM,39.8 µM,> 100 µM,> 100 µM,45.4 µM,53.9 µM,> 100 µM,17.3 µM,37.1 µM
Cc1cc2nc(C(C)C(=O)c3ccc(Cl)cc3)c(=O)[nH]c2cc1C (configuration not stated),97.6 µM,> 100 µM,> 100 µM,75.2 µM,> 100 µM,> 100 µM,53.7 µM,> 100 µM,> 100 µM,,,,,,,,,
O=[N+]([O-])c1ccc(S(=O)(=O)Cc2ccccc2)c([N+](=O)[O-])c1,6.03 µM,2.92 µM,21.2 µM,3.28 µM,> 91.7 µM,3.2 µM,3.26 µM,5.12 µM,3.52 µM,,,,,,,,,
COc1ccc2oc(=O)cc(C(c3ccc[nH]3)c3ccc[nH]3)c2c1,3.79 µM,13.1 µM,11.8 µM,15.6 µM,50.5 µM,13.1 µM,0.549 µM,0.389 µM,14 µM,,0.124 µM,0.123 µM,0.155 µM,0.171 µM,,0.221 µM,< 0.0505 µM,0.11 µM
COc1cc2c(cc1O)CC[C@@H]1[C@@H]2CC[C@]2(C)[C@@H](NCCN(C)C)CC[C@@H]12,0.437 µM,0.991 µM,0.378 µM,0.932 µM,1.1 µM,0.945 µM,0.4 µM,0.858 µM,0.636 µM,0.0989 µM,0.459 µM,0.0613 µM,0.467 µM,0.277 µM,0.464 µM,0.107 µM,0.334 µM,0.161 µM
O=C(NC1CCN(Cc2ccccc2)CC1)c1cc(-c2ccncc2)nc2ccc(Cl)cc12,34.8 µM,24.7 µM,30.4 µM,> 91.8 µM,64 µM,> 50.5 µM,42.7 µM,99.9 µM,> 100 µM,6.82 µM,6.71 µM,2.43 µM,29.7 µM,14.4 µM,5.43 µM,7.76 µM,17.2 µM,43.5 µM
CCNC(=O)[C@@H]1CCCN2C(=O)CC[C@H](NC(=O)[C@H](Cc3ccc(OP(=O)(O)O)cc3)NC(C)=O)C(=O)N12,> 25 µM,> 25 µM,> 25 µM,> 25 µM,> 25 µM,> 25 µM,> 25 µM,> 25 µM,> 25 µM,> 25 µM,> 25 µM,> 25 µM,> 25 µM,> 25 µM,> 25 µM,> 25 µM,> 25 µM,> 25 µM
COc1cccc2c1C(=O)C=CC2=O,1.02 µM,10.5 µM,29.9 µM,28.4 µM,> 100 µM,13 µM,20.5 µM,29.1 µM,30 µM,,,,,,,,,
C=C1C(=O)O[C@H]2[C@H]1CC/C(CNC(=O)Cc1c[nH]c3ccccc13)=C\CC[C@@]1(C)O[C@@H]21,2.84 µM,11.4 µM,35.5 µM,2.01 µM,45.5 µM,17.1 µM,1.14 µM,15.8 µM,18.6 µM,0.314 µM,1.11 µM,12.8 µM,0.747 µM,11.9 µM,4.77 µM,0.313 µM,3.04 µM,3.54 µM
Cc1ccc2c(c1)C(C)Cc1c(ncnc1-n1cnc3ccccc31)N2C (configuration not stated),11 µM,20.3 µM,20.1 µM,29.4 µM,28.9 µM,17.8 µM,0.818 µM,20.6 µM,18 µM,0.0649 µM,0.953 µM,0.3 µM,13.1 µM,0.376 µM,0.337 µM,0.285 µM,1.37 µM,0.727 µM
C/C(=N\NC(=O)c1sc(=S)n(C)c1N)c1cc2ccccc2o1,22 µM,38.4 µM,42.6 µM,32.7 µM,31.2 µM,> 100 µM,50.6 µM,41.8 µM,58.8 µM,8.04 µM,13.4 µM,17.3 µM,15.3 µM,11.7 µM,37.6 µM,17.1 µM,18.3 µM,17.7 µM
COc1ccc(-c2cc(-c3cc(Cl)ccc3Cl)nc3n[nH]c(N)c23)cc1,52.5 µM,> 100 µM,> 100 µM,> 100 µM,87 µM,24.4 µM,> 100 µM,> 100 µM,> 100 µM,10.1 µM,37.8 µM,20.9 µM,41.2 µM,25.3 µM,4.05 µM,34.6 µM,38.1 µM,36.9 µM
Cn1cc(-c2ccc3c(Nc4cccc(NC(=O)Nc5cccc(F)c5)c4)ncnc3c2)cn1,> 100 µM,13.2 µM,9.57 µM,10.2 µM,9.79 µM,14.9 µM,13.4 µM,16 µM,13.4 µM,1.24 µM,2.17 µM,0.0391 µM,2.72 µM,1.5 µM,0.559 µM,0.0503 µM,4.04 µM,2.99 µM
O=C(O)CCNc1ccccc1C(=O)O,> 100 µM,> 100 µM,> 100 µM,> 100 µM,> 100 µM,> 100 µM,> 100 µM,> 100 µM,> 100 µM,,,,,,,,,
CC1(C)N=C(N)N=C(N)N1c1cccc(CCCCc2cccc(S(=O)(=O)F)c2)c1,33.2 µM,> 100 µM,23.7 µM,> 100 µM,> 100 µM,> 100 µM,> 100 µM,> 43.1 µM,> 100 µM,0.355 µM,11.8 µM,0.98 µM,4.85 µM,51.1 µM,20.3 µM,1.53 µM,0.973 µM,2.39 µM
COc1cccc(C2c3cc4c(cc3OC(C)(N3CCCC3)C2C)OCO4)c1OC (configuration not stated),22.5 µM,31.6 µM,94.3 µM,89.1 µM,52.5 µM,47.4 µM,24.6 µM,32.6 µM,44.6 µM,,,,,,,,,
COc1ccc(C2CC(c3cc(OC)c(OC)c(OC)c3)=NO2)cc1OCCCCOc1cc2c(cc1OC)C(=O)N1CCC[C@H]1C=N2 (some centres not stated),3.26 µM,5.71 µM,3.29 µM,9.41 µM,3.82 µM,> 100 µM,4.04 µM,3.54 µM,3.5 µM,1.12 µM,2.41 µM,1.71 µM,3.51 µM,1.1 µM,3.09 µM,1.96 µM,1.23 µM,1.83 µM
Cc1c2cc[n+](C)cc2c(C)c2c1sc1ccccc12,9.54 µM,33.7 µM,0.804 µM,68.5 µM,0.692 µM,60.6 µM,7.71 µM,1.37 µM,2.29 µM,,,,,,,,,
CC(=O)N[C@@H](Cc1ccc(OP(=O)(O)O)cc1)C(=O)N[C@H]1CCC(=O)N2CCC[C@@H](C(=O)NCc3ccc(Cl)cc3)N2C1=O,> 25 µM,> 25 µM,> 25 µM,> 25 µM,> 25 µM,> 25 µM,> 25 µM,> 25 µM,> 25 µM,> 25 µM,> 25 µM,> 25 µM,> 25 µM,> 25 µM,> 25 µM,> 25 µM,> 25 µM,> 25 µM
N#Cc1c(-c2ccccc2)nc(SCC2CO2)nc1N1CCOCC1 (configuration not stated),> 53.3 µM,> 100 µM,> 82.6 µM,99 µM,11.8 µM,17 µM,67.6 µM,> 94.1 µM,> 100 µM,12.3 µM,4.27 µM,1.91 µM,4.88 µM,1.93 µM,1.07 µM,11.3 µM,5.89 µM,8.51 µM
C=CC[n+]1c(/C=C/C=C2\N(C)c3ccccc3C2(C)C)sc2ccc(OC)cc21,7.12 µM,10.9 µM,14.1 µM,14.8 µM,25.4 µM,,0.591 µM,2.99 µM,12.9 µM,0.101 µM,1.65 µM,0.283 µM,0.235 µM,0.465 µM,,0.188 µM,0.149 µM,0.0761 µM
